The text below walks through data of PMC9981504 (Journal of Biological Inorganic Chemistry, 2023).

In the experiment the target is T1, soybean lipoxygenase (Glycine max, UniProt P08170).
T1 construct: gene LOX1.1
The experiment is described as follows: UV enzyme assay at […] nm, % inhibition at […]. Type of experiment: biochemical. As to conditions: read-out: LOX % 100 μM or IC50.

SMILES strings stand for the structures.

T1 sequence (P08170 whole entry): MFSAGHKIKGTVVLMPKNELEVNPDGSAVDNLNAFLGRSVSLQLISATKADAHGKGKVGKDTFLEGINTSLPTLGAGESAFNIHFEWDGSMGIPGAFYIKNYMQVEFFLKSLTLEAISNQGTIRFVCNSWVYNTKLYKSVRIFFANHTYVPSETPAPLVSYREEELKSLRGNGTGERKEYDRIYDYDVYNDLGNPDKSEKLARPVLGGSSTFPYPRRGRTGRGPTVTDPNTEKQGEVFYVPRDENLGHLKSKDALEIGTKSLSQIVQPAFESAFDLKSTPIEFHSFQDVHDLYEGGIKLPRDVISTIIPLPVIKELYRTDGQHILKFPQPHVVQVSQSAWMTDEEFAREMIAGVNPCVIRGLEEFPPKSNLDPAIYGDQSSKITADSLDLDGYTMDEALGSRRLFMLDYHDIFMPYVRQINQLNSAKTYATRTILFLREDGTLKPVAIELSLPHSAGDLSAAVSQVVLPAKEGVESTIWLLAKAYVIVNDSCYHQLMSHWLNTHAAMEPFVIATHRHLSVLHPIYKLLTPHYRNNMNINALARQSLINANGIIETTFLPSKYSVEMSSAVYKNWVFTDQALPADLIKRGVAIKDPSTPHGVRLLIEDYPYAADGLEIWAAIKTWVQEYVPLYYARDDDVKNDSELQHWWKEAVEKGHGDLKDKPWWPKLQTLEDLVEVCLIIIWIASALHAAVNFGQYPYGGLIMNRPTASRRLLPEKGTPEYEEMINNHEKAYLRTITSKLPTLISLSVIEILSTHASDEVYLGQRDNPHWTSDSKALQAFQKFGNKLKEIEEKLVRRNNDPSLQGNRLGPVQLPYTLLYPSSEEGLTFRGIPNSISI

In the case of `O=c1c(O)c(-c2ccc(O)cc2)oc2cc(O)ccc12` [resokaempferol, 3,7,4΄-trihydroxyflavone], the inhibition at 100 µM stood at 90%.
